What was measured:
Acetylcholinesterase [1] = molecular target: Acetylcholinesterase (Electrophorus electricus, UniProt O42275); assay: Inhibition of electric eel AChE
Acetylcholinesterase [2] = molecular target: T1, Acetylcholinesterase (Homo sapiens, UniProt P22303); assay: Inhibition of AChE (unknown origin) by Ellman's method
[3] = molecular target: cGMP-specific 3',5'-cyclic phosphodiesterase (Homo sapiens, UniProt O76074); assay: Inhibition of PDE5A (unknown origin) using […] as substrate measured after 1 hr by fluorescence polarization assay
Acetylcholinesterase [4] = molecular target: T1, Acetylcholinesterase; assay: Inhibition of AChE (unknown origin)
Cholinesterase = Cholinesterase (Homo sapiens, UniProt P06276); assay: Inhibition of BChE (unknown origin)
Cholinesterase, sequence (P06276 whole entry): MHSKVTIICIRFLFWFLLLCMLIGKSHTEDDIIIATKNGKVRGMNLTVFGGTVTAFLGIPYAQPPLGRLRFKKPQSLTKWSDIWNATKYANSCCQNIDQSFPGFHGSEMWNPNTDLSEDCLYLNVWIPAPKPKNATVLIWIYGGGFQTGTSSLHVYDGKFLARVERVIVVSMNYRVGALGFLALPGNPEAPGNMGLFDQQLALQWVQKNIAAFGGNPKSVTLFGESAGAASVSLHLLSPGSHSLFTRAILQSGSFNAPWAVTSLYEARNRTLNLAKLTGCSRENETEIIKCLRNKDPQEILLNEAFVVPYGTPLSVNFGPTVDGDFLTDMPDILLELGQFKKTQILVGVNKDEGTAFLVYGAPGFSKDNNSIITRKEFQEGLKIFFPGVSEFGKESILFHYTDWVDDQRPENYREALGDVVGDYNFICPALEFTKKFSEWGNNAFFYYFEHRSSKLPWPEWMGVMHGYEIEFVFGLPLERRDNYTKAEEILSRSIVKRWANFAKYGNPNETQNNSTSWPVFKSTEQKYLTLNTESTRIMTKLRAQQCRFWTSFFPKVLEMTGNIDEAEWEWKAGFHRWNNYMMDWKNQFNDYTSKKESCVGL

[5] = molecular target: High affinity cGMP-specific 3',5'-cyclic phosphodiesterase 9A (Homo sapiens, UniProt O76083); assay: Inhibition of PDE9A (unknown origin)
High affinity cGMP-specific 3',5'-cyclic phosphodiesterase 9A, sequence (O76083 whole entry): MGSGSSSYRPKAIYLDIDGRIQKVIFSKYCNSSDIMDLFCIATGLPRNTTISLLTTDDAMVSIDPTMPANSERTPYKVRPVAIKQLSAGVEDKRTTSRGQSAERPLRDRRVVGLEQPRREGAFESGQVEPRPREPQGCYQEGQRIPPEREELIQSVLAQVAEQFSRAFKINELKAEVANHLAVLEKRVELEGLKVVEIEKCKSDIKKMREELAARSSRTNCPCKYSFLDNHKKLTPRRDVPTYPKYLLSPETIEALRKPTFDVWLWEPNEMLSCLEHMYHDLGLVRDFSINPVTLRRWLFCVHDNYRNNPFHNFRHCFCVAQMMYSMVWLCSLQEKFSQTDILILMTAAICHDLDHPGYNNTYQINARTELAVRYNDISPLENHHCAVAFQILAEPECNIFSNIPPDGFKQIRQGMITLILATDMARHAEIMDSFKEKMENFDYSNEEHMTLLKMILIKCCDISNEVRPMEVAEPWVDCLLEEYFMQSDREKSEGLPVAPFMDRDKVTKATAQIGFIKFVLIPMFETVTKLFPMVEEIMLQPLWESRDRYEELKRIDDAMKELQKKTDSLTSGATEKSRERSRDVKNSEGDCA

Beta-secretase 1 = Beta-secretase 1 (Homo sapiens, UniProt P56817); assay: Inhibition of human BACE-1 by FRET assay
Beta-secretase 1, sequence (P56817 whole entry): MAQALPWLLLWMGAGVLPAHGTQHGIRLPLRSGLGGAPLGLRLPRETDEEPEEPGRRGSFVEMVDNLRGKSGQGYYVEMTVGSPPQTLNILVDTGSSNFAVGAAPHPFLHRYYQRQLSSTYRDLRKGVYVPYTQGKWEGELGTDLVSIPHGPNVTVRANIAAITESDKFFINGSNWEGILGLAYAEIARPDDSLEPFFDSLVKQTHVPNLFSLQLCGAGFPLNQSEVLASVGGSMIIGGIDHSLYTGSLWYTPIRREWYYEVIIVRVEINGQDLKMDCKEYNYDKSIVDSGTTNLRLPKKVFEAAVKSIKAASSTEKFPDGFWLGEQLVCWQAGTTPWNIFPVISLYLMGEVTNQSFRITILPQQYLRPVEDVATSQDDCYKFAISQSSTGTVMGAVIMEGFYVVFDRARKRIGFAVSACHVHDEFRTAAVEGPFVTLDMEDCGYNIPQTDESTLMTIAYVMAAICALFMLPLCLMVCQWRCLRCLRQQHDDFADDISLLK

SH-SY5Y = assay: Cytotoxicity against human SH-SY5Y cells assessed as reduction in cell viability at 10 uM measured after 24 hrs by MTT assay relative to control; assay type: functional
Acetylcholinesterase [6] = molecular target: T1, Acetylcholinesterase

T1 sequence (P22303 whole entry): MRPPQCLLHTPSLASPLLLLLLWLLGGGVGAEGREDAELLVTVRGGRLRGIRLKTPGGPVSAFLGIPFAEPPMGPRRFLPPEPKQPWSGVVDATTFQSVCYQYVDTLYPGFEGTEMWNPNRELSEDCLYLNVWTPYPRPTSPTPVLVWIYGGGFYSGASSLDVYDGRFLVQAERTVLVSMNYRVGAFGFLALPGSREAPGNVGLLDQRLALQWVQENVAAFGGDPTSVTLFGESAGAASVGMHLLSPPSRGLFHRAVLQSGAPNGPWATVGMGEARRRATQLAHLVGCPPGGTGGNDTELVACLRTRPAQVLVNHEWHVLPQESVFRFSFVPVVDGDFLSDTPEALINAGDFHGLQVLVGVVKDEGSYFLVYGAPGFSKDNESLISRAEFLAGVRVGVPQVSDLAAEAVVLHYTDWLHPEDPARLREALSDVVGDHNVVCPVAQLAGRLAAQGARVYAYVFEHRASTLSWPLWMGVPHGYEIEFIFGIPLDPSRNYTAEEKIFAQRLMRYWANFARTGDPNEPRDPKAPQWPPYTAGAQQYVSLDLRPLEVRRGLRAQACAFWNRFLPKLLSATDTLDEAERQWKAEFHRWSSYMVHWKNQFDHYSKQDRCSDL
Acetylcholinesterase (Electrophorus electricus, UniProt O42275), sequence (O42275 whole entry): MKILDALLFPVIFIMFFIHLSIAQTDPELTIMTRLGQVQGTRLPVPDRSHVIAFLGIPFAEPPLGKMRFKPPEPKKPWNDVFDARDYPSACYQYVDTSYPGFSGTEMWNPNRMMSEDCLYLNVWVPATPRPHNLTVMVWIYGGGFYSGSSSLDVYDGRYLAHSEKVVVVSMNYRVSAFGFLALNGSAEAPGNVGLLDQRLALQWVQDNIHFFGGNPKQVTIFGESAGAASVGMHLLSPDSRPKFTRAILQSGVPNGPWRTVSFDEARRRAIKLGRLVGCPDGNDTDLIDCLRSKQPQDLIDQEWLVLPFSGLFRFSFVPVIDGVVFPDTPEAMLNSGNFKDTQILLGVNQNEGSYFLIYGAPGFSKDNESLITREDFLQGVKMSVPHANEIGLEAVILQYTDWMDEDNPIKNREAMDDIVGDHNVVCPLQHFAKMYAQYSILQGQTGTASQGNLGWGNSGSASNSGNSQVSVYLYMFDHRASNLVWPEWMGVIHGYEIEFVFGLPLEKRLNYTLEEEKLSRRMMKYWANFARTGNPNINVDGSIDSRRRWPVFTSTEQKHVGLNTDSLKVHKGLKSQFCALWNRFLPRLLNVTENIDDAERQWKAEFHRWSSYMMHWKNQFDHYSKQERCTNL

Compound `O=C1c2c(O)cc(OCCCCCN3CCCCC3)cc2OC2C=CC=CC12` (centres undefined) has an IC50 (Acetylcholinesterase [1]) of 469 nM.

For `O=C1[C@H]2Cc3c([nH]c4ccccc34)[C@@H](c3ccc4c(c3)OCO4)N2C(=O)CN1CCC1CCN(Cc2ccccc2)CC1`, the IC50 (Acetylcholinesterase [2]) was 30 nM and the IC50 [3] was 150 nM.

Work on `O=c1[nH]c(CNCCC2CCN(Cc3ccccc3)CC2)nc2c1cnn2C1CCCC1` yielded an IC50 (Acetylcholinesterase [4]) of 290 nM, an IC50 (Cholinesterase) of 5800 nM and an IC50 [5] of 380 nM.

Work on `c1ccc2oc(CNCCCCCCCNc3c4c(cc5ccccc35)CCCC4)cc2c1` yielded an IC50 (Beta-secretase 1) of 1350 nM, an Activity (SH-SY5Y) of 63% and an IC50 (Acetylcholinesterase [6]) of 0.86 nM.

— ChEMBL document CHEMBL6127041, “Dual-target inhibitors based on acetylcholinesterase: Novel agents for Alzheimer's disease” (Eur J Med Chem, 2024)
